Assay results reported in US20260248763A1 (BIO GENUINE (SHANGHAI) BIOTECH CO., LTD, priority 2023, published 2026).

Experiments:
OTR = target: T1, OTR (Homo sapiens, UniProt P30559); assay: Ca2+ mobilization in cells stably expressing OTR (FLIPR, antagonist mode); type: cell-based; settings: OTR/HEK293 stably transfected cell line
T1 construct: expressed in transfected cells; host or cells: OTR/HEK293 stably transfected cell line
T1 sequence (P30559 1-389): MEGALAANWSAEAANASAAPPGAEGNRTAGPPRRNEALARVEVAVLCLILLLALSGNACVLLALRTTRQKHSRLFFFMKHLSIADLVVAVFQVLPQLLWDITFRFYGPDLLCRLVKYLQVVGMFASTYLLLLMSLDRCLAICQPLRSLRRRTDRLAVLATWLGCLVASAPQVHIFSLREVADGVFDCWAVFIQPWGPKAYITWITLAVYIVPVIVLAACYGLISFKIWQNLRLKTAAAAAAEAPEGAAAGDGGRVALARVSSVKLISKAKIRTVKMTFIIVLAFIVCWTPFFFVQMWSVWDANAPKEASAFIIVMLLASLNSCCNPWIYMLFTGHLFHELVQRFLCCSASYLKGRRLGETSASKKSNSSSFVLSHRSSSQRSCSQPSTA
In short: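 Antagonist mode: test compounds in 10-point 3-fold series were added on FLIPR to Fluo-4-loaded HEK293 cells stably expressing OTR, followed by reference agonist at its EC80, determined beforehand. The Max-Min calcium fluorescence response was fitted in Prism.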

[1] = Blood-brain distribution determination in SD rats; type: in vivo; settings: female SD rats, oral, 5 mg/kg; for Kp / AUC(0-t): rat; for Kp: brain/plasma, read-out: Brain/plasma exposure ratio; for AUC(0-t): plasma, read-out: Plasma area under the curve AUC0-t
Protocol: Test Example 4: Blood-Brain Distribution Determination in SD Rats
In this study, female SD rats were selected as test animals. The LC/MS/MS method was used to quantitatively determine the drug concentrations of the test compounds in plasma and brain tissues at three different time points (0.5 h, 2 h, 4 h or 6 h) after oral administration (5 mg/kg or 10 mg/kg) in rats, so as to evaluate the pharmacokinetic profile of the test drugs in rats.
The example compounds of the present disclosure, made in house.
SD rats (female, 180-220 g, 6-8 weeks old, purchased from Beijing Vital River Laboratory Animal Technology Co., Ltd., with animal production license number SCXK (Beijing) 2021-0006).
Vehicle for oral administration: 5% DMSO+95% PEG400 or a mixture of (50% Labrasol+50% Water).
The test compound, formulated as a clear solution or suspension, was administered to overnight-fasted SD rats via oral gavage. For oral gavage, blood samples (0.25 mL) were collected via jugular vein puncture at pre-dose (0 h) and 0.5 h, 2 h, 4 h or 6 h post-dose. The samples were placed into sodium heparin anticoagulant tubes. After collection, the blood samples were placed on wet ice and centrifuged within 1 hour to separate the plasma. The separated plasma was stored frozen in a −80° C. freezer. After blood collection, the animals were euthanized by cervical dislocation. The whole brain tissue was dissected out. The collected brain tissue was first rinsed with physiological saline, blotted dry with absorbent paper, and then stored frozen in a −80° C. freezer. Prior to analysis, the brain tissue samples and plasma samples were taken out from the −80° C. freezer. After the brain tissue samples were completely thawed, a given amount of brain tissue was weighed, and 50% methanol/water was added for homogenization. Drug concentrations in plasma and brain tissues were determined using the LC-MS/MS method, and the relevant pharmacokinetic parameters were calculated using the non-compartmental model with linear-log trapezoidal method in Phoenix WinNonlin 8.2.0 pharmacokinetic software.

| SMILES | IC50 (OTR) [µM] | Brain tissue area under the curve AUC0-t [1] [ng·h/g] | Kp [1] | AUC(0-t) [1] [ng·h/mL] |
| --- | --- | --- | --- | --- |
| CON=C1CC(CO)N(C(=O)c2ccc(-c3cccc(C#N)c3C)c3c2OCO3)C1 (single isomer, unassigned) [Example C0099] | 0.0175 | 150 | 0.1 | 1460 |
| CO/N=C1/C[C@@H](CO)N(C(=O)c2ccc(-c3cccc(C#N)c3Cl)cc2)C1 [Example A0203, 2-Chloro-3-(4-[(2S, 4Z)-2-(hydroxymethyl)-4-(methoxyimino)pyrrolidine-1-carbonyl]phenyl)benzonitrile] | 0.0208 | 2579 | 0.39 | 6670 |
| CO/N=C1/C[C@@H](CO)N(C(=O)c2ccc(-c3cccc(C#N)c3C)cc2)C1 [Example C0058, (S, Z)-4′-(2-(Hydroxymethyl)-4-(methoxyimino)pyrrolidine-1-carbonyl)-2-methyl-[1,1′-biphenyl]-3-carbonitrile] | 0.0177 | 1109 | 0.32 | 3520 |

These reach a lower IC50 (OTR). Values come first.

| IC50 (OTR) [µM] | Brain tissue area under the curve AUC0-t [1] [ng·h/g] | Kp [1] | AUC(0-t) [1] [ng·h/mL] | SMILES |
| --- | --- | --- | --- | --- |
| 0.00751 | 818 | 0.52 | 1570 | CO/N=C1/C[C@@H]([C@@H](C)O)N(C(=O)c2ccc(-c3cccc(C#N)c3C)cc2)C1 (single isomer, unassigned) [Example C0112] |
| 0.00663 | 169 | 0.08 | 2050 | CO/N=C1/C[C@@H](CO)N(C(=O)c2ccc(-c3cc(F)cc(C#N)c3C)c3c2OCCO3)C1 [Example C0152, (S,Z)-5-Fluoro-3-(8-(2-(hydroxymethyl)-4-(methoxyimino)pyrrolidine-1-carbonyl)-2,3-dihydrobenzo[b][1,4]dioxin-5-yl)-2-methylbenzonitrile] |
